Like-named read-outs stand apart in the source and are kept apart here.
Experiments:
[1] = log P by HPLC on reversed-phase column (C 18), EEC Directive 79/831 Annex V.A8; assay type: physicochemical; settings: 55° C.; for LOGP_HCOOH: log P (HCOOH); for chromatographic logP: reversed-phase HPLC column (C 18)
Description: Temperature: 55° C. […] Called log P (HCOOH) in the table. […] Called log P (neutral) in the table.

[2] = test system: Phaedon cochleariae; assay: Phaedon cochleariae spray test; assay type: in vivo; settings: after 7 days, Chinese cabbage leaf discs
Procedure, shortened: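 Larval kill read at day 7 as percent, where 100% means every larva dead and 0% none; larvae were placed on dried Brassica pekinensis leaf discs previously sprayed with the formulation (acetone/dimethylformamide solvent, alkylaryl polyglycol ether emulsifier, water).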

[3] = test system: Spodoptera frugiperda; assay: Spodoptera frugiperda spray test; assay type: in vivo; settings: after 7 days, maize leaf discs
Procedure, shortened: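 Efficacy in % was scored at 7 days against armyworm caterpillars placed on dried, compound-sprayed Zea mays leaf discs. Compound was dissolved in acetone/dimethylformamide and diluted in water with 1000 ppm alkylaryl polyglycol ether. 100% means all caterpillars were killed.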

[4] = test system: Tetranychus urticae; assay: Tetranychus urticae spray test, OP-resistant; assay type: in vivo; settings: after 6 days, bean leaf discs
Description: Tetranychus urticae—Spray Test, OP-Resistant
Solvent: 78.0 parts by weight of acetone • • 1.5 parts by weight of dimethylformamide
Emulsifier: alkylaryl polyglycol ether
To produce a suitable active ingredient formulation, 1 part by weight of active ingredient is dissolved with the specified parts by weight of solvent and made up with water containing an emulsifier concentration of 1000 ppm until the desired concentration is attained. To produce further test concentrations, the formulation is diluted with emulsifier-containing water.
Discs of bean leaves (Phaseolus vulgaris) infested with all stages of the greenhouse red spider mite (Tetranychus urticae) are sprayed with an active ingredient formulation of the desired concentration.
After 6 days, the efficacy in % is determined. 100% means that all the spider mites have been killed; 0% means that no spider mites have been killed.

[5] = test system: Ctenocephalides felis; assay: Ctenocephalides felis oral test; assay type: in vivo; settings: application rate 100 ppm in citrated cattle blood, after 2 days, adult cat fleas
Procedure, shortened: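 Kill (%) was recorded at 2 days. Compound, dissolved in DMSO and diluted into citrated cattle blood, was offered to roughly 20 unfed adult C. felis through parafilm.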

[6] = test system: Lucilia cuprina; assay: Lucilia cuprina test; assay type: in vivo; settings: application rate 100 ppm, after 2 days, L1 larvae
Procedure, shortened: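 Percent mortality read at day 2, where 100% means all larvae dead. Roughly 20 L1 larvae were exposed on minced horsemeat treated with a DMSO/water formulation at the desired concentration.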

[7] = test system: Meloidogyne incognita; assay: Meloidogyne incognita test; assay type: in vivo; settings: application rate 20 ppm, after 14 days, lettuce
Description: Meloidogyne incognita Test Solvent: 125.0 parts by weight of acetone To produce a suitable active ingredient formulation, 1 part by weight of active ingredient is mixed with the stated amount of solvent and the concentrate is diluted with water to the desired concentration. Vessels are filled with sand, active ingredient solution, an egg/larvae suspension of the southern root-knot nematode (Meloidogyne incognita) and lettuce seeds. The lettuce seeds germinate and the plants develop. The galls develop on the roots. After 14 days, the nematicidal efficacy in % is determined by the formation of galls. 100% means that no galls were found; 0% means that the number of galls on the treated plants corresponds to the untreated control.

[8] = test system: Musca domestica; assay: Musca domestica test; assay type: in vivo; settings: after 2 days, adult houseflies
Description: Musca domestica Test Solvent: dimethyl sulphoxide To produce a suitable active ingredient formulation, 10 mg of active ingredient are mixed with 0.5 ml of dimethyl sulphoxide, and the concentrate is diluted with water to the desired concentration. Vessels containing a sponge treated with sugar solution and the active ingredient formulation of the desired concentration are populated with 10 adult houseflies (Musca domestica). After 2 days, the kill in % is determined. 100% means that all of the flies have been killed; 0% means that none of the flies have been killed.

[9] = acidic range at pH 2.7, 0.1% aqueous formic acid and acetonitrile, HPLC on reversed-phase column (C 18)
[10] = log P, neutral range, HPLC on reversed-phase column (C 18)
[11] = acidic range pH 2.7, 0.1% aqueous formic acid and acetonitrile, reversed-phase column (C 18)

LOGP_HCOOH [1, 9] | LOGP_NEUTRAL [1, 10] | LOGP_HCOOH [1, 11] | SMILES | efficacy (beetle larvae killed) ([2]; application rate 500 g/ha) [%] | efficacy (caterpillars killed) ([3]; application rate 500 g/ha) [%] | efficacy (spider mites killed) ([4]; application rate 500 g/ha) [%] | efficacy (beetle larvae killed) ([2]; application rate 100 g/ha) [%] | efficacy (caterpillars killed) ([3]; application rate 100 g/ha) [%] | efficacy (kill in %) [5] [%] | efficacy (kill in %) [6] [%] | further results
4.23 |  |  | O=C(NCc1ccccc1)c1cc(-c2ccc(OC(F)(F)F)cc2)cc(NC(=O)C2CC2)n1 [Example I-227] | 100 | 100 | 90 |  |  |  |  | efficacy (spider mites killed) ([4]; application rate 100 g/ha): 90%
4.17 | 4.02 |  | CC(NC(=O)c1cc(-c2ccc(OC(F)(F)F)cc2)cc(NC(=O)C2CC2)n1)c1ccc(C#N)cc1 (single isomer, unassigned) [Example I-218] | 100 | 100 | 90 | 100 | 100 |  |  | efficacy (spider mites killed) ([4]; application rate 100 g/ha): 90%
4.29 | 4.14 |  | N#CC1CCC(CNC(=O)c2cc(-c3ccc(C(F)(F)C(F)(F)F)c(F)c3)cc(NC(=O)C3CC3)n2)CC1 (stereo not shown) [Example I-185] | 100 | 100 | 90 | 100 | 100 |  |  | 
 | 3.88 | 4.01 | N#Cc1cccc(CCNC(=O)c2cc(-c3ccc(OC(F)(F)F)cc3)cc(NC(=O)C3CC3)n2)c1 [Example I-091] | 100 | 100 | 90 |  | 100 | 95 | 100 | 
3.29 | 3.26 |  | COCCNC(=O)c1cc(-c2ccc(OC(F)(F)F)cc2)cc(NC(=O)C2CC2)n1 [Example I-177] |  |  |  |  |  |  |  | nematicidal efficacy (formation of galls) [7]: 90%
3.81 | 3.74 |  | N#Cc1ccc(CNC(=O)c2cc(-c3ccc(OC(F)(F)C(F)Cl)cc3)cc(NC(=O)C3CC3)n2)cc1 (stereo not shown) [Example I-194] | 83 |  | 90 |  |  |  |  | efficacy (spider mites killed) ([4]; application rate 100 g/ha): 90%
 |  | 3.90 | N#Cc1ccc(CNC(=O)c2cc(-c3ccc(OC(F)(F)F)cc3)cc(NC(=O)C3CC3)n2)s1 [Example I-255] |  | 100 | 90 |  | 83 |  |  | LOGP_NEUTRAL ([1]; log P (neutral), HPLC reversed-phase column (C 18)): 3.88
 | 3.25 | 3.34 | C#CCNC(=O)c1cc(-c2ccc(C(F)(F)F)cc2)cc(NC(=O)C2CC2)n1 [Example I-038] | 83 | 83 |  | 100 |  |  |  | nematicidal efficacy (formation of galls) [7]: 90%
 | 3.97 | 4.08 | COC(=O)c1ccc(CNC(=O)c2cc(-c3ccc(OC(F)(F)F)cc3)cc(NC(=O)C3CC3)n2)cc1 [Example I-101] | 83 |  | 90 |  |  |  |  | 
 | 3.21 |  | CN(C(=O)c1cc(-c2ccc(C(F)(F)F)cc2)cc(NC(=O)C2CC2)n1)C1CC1 [Example I-036, N-Cyclopropyl-6-[(cyclopropylcarbonyl)amino]-N-methyl-4-[4-(trifluoromethyl)phenyl]pyridine-2-carboxamide] |  |  | 90 |  |  |  |  | chromatographic logP ([1]; pH 2.7, log P (HCOOH), acidic range pH 2.7, 0.1% aqueous formic acid and acetonitrile, reversed-phase column (C 18), read-out: LOGP_HCOOH): 3.3; chromatographic logP ([1]; pH 7.8, LC-MS neutral range, pH 7.8, ammonium hydrogencarbonate/acetonitrile, read-out: log P (neutral)): 3.21; pest or weed control at 100 ppm ([5]; Ctenocephalides felis, po, 48 h, read-out: efficacy (kill in %)): 100%; pest or weed control at 500 g/ha ([3]; Spodoptera frugiperda, foliar, 168 h, application rate 500 g/ha, read-out: efficacy (caterpillars killed)): 83%
4.27 | 4.57 |  | N#Cc1ccc(CNC(=O)c2cc(-c3ccc4c(c3)OC(F)(F)C(F)(F)O4)cc(NC(=O)C3CC3)n2)cc1 [Example I-172] | 100 | 100 |  |  | 100 | 100 | 100 | efficacy (kill in %) ([8]; application rate 100 ppm): 100%
 | 3.75 | 3.86 | Cn1ccc(-c2ccc(CNC(=O)c3cc(-c4ccc(OC(F)(F)F)cc4)cc(NC(=O)C4CC4)n3)cc2)n1 [Example I-100] |  | 83 |  |  |  |  |  | efficacy (spider mites killed) ([4]; application rate 100 g/ha): 90%
 | 3.96 | 3.99 | CC(C)C(=O)Nc1cc(-c2ccc(C(F)(F)F)cc2)cc(C(=O)NCc2ccc(C#N)cc2F)n1 [Example I-078] | 100 | 100 |  |  | 100 | 100 | 100 | efficacy (kill in %) ([8]; application rate 100 ppm): 100%
 | 3.71 | 3.86 | O=C(NC1CC1)c1cc(-c2ccc(SC(F)(F)F)cc2)cc(NC(=O)C2CC2)n1 [Example I-105] | 100 | 100 | 100 | 100 | 83 | 100 |  | 
 | 3.91 | 4.03 | N#Cc1ccc(CNC(=O)c2cc(-c3ccc(OC(F)(F)F)cc3)cc(NC(=O)C3CC3)n2)c(F)c1 [Example I-079] | 100 | 100 |  |  | 100 | 100 | 100 | efficacy (kill in %) ([8]; application rate 100 ppm): 90%
4.22 | 4.08 |  | N#CC1CCC(CNC(=O)c2cc(-c3ccc(C(F)(F)C(F)(F)F)cc3)cc(NC(=O)C3CC3)n2)CC1 (stereo not shown) [Example I-195] | 100 | 100 |  | 100 | 100 | 100 | 100 | efficacy (kill in %) ([8]; application rate 20 ppm): 100%; efficacy (kill in %) ([8]; application rate 100 ppm): 100%
 |  | 4.72 | O=C(NN=Cc1ccc(C(F)(F)F)c(F)c1)c1cc(-c2ccc(OC(F)(F)F)cc2)cc(NC(=O)C2CC2)n1 [Example I-257] |  | 100 |  |  |  |  |  | nematicidal efficacy (formation of galls) [7]: 90%
 | 3.97 | 4.11 | O=C(NCc1ccc([N+](=O)[O-])cc1)c1cc(-c2ccc(OC(F)(F)F)cc2)cc(NC(=O)C2CC2)n1 [Example I-085] | 100 | 100 |  | 100 | 100 | 100 | 100 | efficacy (kill in %) ([8]; application rate 100 ppm): 80%
4.24 | 4.07 |  | N#Cc1ccc(CNC(=O)c2cc(-c3ccc(C(F)(F)C(F)(F)F)cc3)cc(NC(=O)C3CC3)n2)cc1 [Example I-182] | 100 | 100 | 90 | 100 | 100 | 100 | 100 | 

Reference: patent US20190053492A1, “SUBSTITUTED PYRIDINE COMPOUNDS AS PESTICIDES” (Bayer CropScience Aktiengesellschaft, priority 2016, published 2019)
